Tested on: TG, non-HDL-C, LDL-C, HDL-C, Apo B, hsCRP
Experiment: REDUCE-IT fasting lipid profile and biomarker assays over time
Format: in vivo, human
Conditions: for Apo B between group difference vs placebo, median % change from baseline / Apo B between group difference vs placebo, median absolute change from baseline / HDL-C between group difference vs placebo, median % change from baseline / HDL-C between group difference vs placebo, median absolute change from baseline / LDL-C Hopkins between group difference vs placebo, median % change from baseline / LDL-C Hopkins between group difference vs placebo, median absolute change from baseline / LDL-C derived between group difference vs placebo, median % change from baseline / LDL-C derived between group difference vs placebo, median absolute change from baseline / Log hsCRP between group difference vs placebo, median absolute change from baseline / Non-HDL-C between group difference vs placebo, median % change from baseline / Non-HDL-C between group difference vs placebo, median absolute change from baseline / Triglycerides between group difference vs placebo, median absolute change from baseline / hsCRP between group difference vs placebo, median absolute change from baseline: ITT
Method: Fasting Lipid Profile: The fasting lipid panel included: TG, TC, LDL-C, HDL-C, non-HDL-C, and VLDL-C. At all visits, LDL-C was calculated using the Friedewald equation. At Visit 1 and Visit 1.1 direct LDL-C were used if at the same visit TG>400 mg/dL (4.52 mmol/L). These LDL-C values were used for the evaluation of the LDL-C inclusion criterion (LDL-C qualifying measurements for randomization) and for the assessment of changes in the statin therapy when LDL-C was not at goal. […] In addition, irrespective of the TG levels, at Visit 2 (0 Months of Follow-up, baseline) and at Visit 4 (12 Months of Follow-up), LDL-C were measured by preparative ultracentrifugation. These preparative ultracentrifugation LDL-C measurements were used in the statistical analysis including the calculation of the percent change from baseline (1 year versus baseline). Hopkins LDL-C was calculated for each visit.
Biomarkers Assays: The biomarker assays included: hsCRP, Apo B and hsTnT.
The fasting lipid panel was tested at Screening (Visit 1 or Visit 1.1), Randomization visit (Visit 2; Day 0), Visit 3 (Day 120; ˜4 Months) and all other follow-up visits including the last visit. For change from baseline to 1 year preparative ultracentrifugation measurements for LDL-C were analyzed, unless this value was missing. If the LDL-C preparative ultracentrifugation values were missing, then another LDL-C value was used, with prioritization of values obtained from LDL-C Direct measurements, followed by LDL-C derived by the Friedewald calculation (only for subjects with TG<400 mg/dL), and finally LDL-C derived using the calculation published by Hopkins University investigators (Martin S S, Blaha M J, Elshazly M B, et al. Comparison of a novel method vs the Friedewald equation for estimating low-density lipoprotein cholesterol levels from the standard lipid profile. JAMA. 2013; 310:2061-8.). In addition, change from baseline to day 120 in LDL-C utilizing Friedewald's and Hopkins methods was analyzed, using the arithmetic mean of LDL-C obtained at Visit 2 (Day 0) and the preceding Visit 1 (or Visit 1.1). If one of these values was missing, the single available LDL-C value was used. LDL-C according to Hopkins was calculated at each visit.
The randomization visit was considered Baseline. If a baseline value was not available from the randomization visit, then the latest screening value was used. For measurements of lipids, lipoproteins and inflammatory markers, the change and the percent change were summarized at each visit. Since these biomarkers are typically not normally distributed, the Wilcoxon rank-sum test was used for treatment comparisons of the percent change from baseline, and medians and quartiles were provided for each treatment group. The medians of the differences between the treatment groups and 95% CIs were estimated with the Hodges-Lehmann method. In addition, shift-tables were generated as appropriate.

## CC/C=C\C/C=C\C/C=C\C/C=C\C/C=C\CCCC(=O)OCC [icosapent ethyl, eicosapentaenoic acid ethyl ester]
Last Visit
  Apo B between group difference vs placebo, median % change from baseline: −6.7%
  Apo B between group difference vs placebo, median absolute change from baseline: -5.0 mg/dL
  HDL-C between group difference vs placebo, median % change from baseline: −3.0%
  HDL-C between group difference vs placebo, median absolute change from baseline: -1.0 mg/dL
  LDL-C Hopkins between group difference vs placebo, median % change from baseline: −7.4%
  LDL-C Hopkins between group difference vs placebo, median absolute change from baseline: -6.2 mg/dL
  LDL-C derived between group difference vs placebo, median % change from baseline: −6.6%
  LDL-C derived between group difference vs placebo, median absolute change from baseline: -5.0 mg/dL
  Log hsCRP between group difference vs placebo, median absolute change from baseline: −0.4 mg/L
  Non-HDL-C between group difference vs placebo, median % change from baseline: −8.6%
  Non-HDL-C between group difference vs placebo, median absolute change from baseline: -10.0 mg/dL
  Triglycerides between group difference vs placebo, median absolute change from baseline: -32.0 mg/dL
  hsCRP between group difference vs placebo, median absolute change from baseline: -0.8 mg/L
Month 4
  HDL-C between group difference vs placebo, median % change from baseline: −7.2%
  HDL-C between group difference vs placebo, median absolute change from baseline: -3.0 mg/dL
  LDL-C Hopkins between group difference vs placebo, median absolute change from baseline: -8.7 mg/dL
Year 1 (Table 18)
  Apo B median value: 80.0 mg/dL
  hsCRP median value: 1.8 mg/L
Year 1
  HDL-C between group difference vs placebo, median % change from baseline: −6.3%
  HDL-C between group difference vs placebo, median absolute change from baseline: -2.5 mg/dL
  LDL-C Hopkins between group difference vs placebo, median absolute change from baseline: -9.6 mg/dL
  LDL-C derived between group difference vs placebo, median % change from baseline: −6.6%
  LDL-C derived between group difference vs placebo, median absolute change from baseline: -5.0 mg/dL
Year 2
  Apo B between group difference vs placebo, median % change from baseline: −9.7%
  Apo B between group difference vs placebo, median absolute change from baseline: -8.0 mg/dL
  HDL-C between group difference vs placebo, median % change from baseline: −4.6%
  HDL-C between group difference vs placebo, median absolute change from baseline: -2.0 mg/dL
  LDL-C Hopkins between group difference vs placebo, median absolute change from baseline: -9.4 mg/dL
  Log hsCRP between group difference vs placebo, median absolute change from baseline: −0.4 mg/L
  hsCRP between group difference vs placebo, median absolute change from baseline: -0.9 mg/L
Year 3
  HDL-C between group difference vs placebo, median % change from baseline: −3.8%
  HDL-C between group difference vs placebo, median absolute change from baseline: -1.5 mg/dL
  LDL-C Hopkins between group difference vs placebo, median absolute change from baseline: -8.7 mg/dL
Year 4
  HDL-C between group difference vs placebo, median % change from baseline: −3.9%
  HDL-C between group difference vs placebo, median absolute change from baseline: -1.5 mg/dL
  LDL-C Hopkins between group difference vs placebo, median absolute change from baseline: -8.9 mg/dL
  Non-HDL-C between group difference vs placebo, median % change from baseline: −12.0%
  Non-HDL-C between group difference vs placebo, median absolute change from baseline: -14.0 mg/dL
  Triglycerides between group difference vs placebo, median absolute change from baseline: -38.0 mg/dL
Year 5
  HDL-C between group difference vs placebo, median % change from baseline: −3.0%
  HDL-C between group difference vs placebo, median absolute change from baseline: -1.5 mg/dL
  LDL-C Hopkins between group difference vs placebo, median % change from baseline: −8.0%
  LDL-C Hopkins between group difference vs placebo, median absolute change from baseline: -6.6 mg/dL
  Non-HDL-C between group difference vs placebo, median % change from baseline: −9.9%
  Non-HDL-C between group difference vs placebo, median absolute change from baseline: -11.0 mg/dL
Baseline to one year
  Triglycerides: median reduction from baseline greater than in placebo group (Hodges-Lehmann): 19.7%
